In patent US20040038369A1, “Airway-specific trypsin-like enzymes and method of using the same” (priority 2000, published 2004):

Experiments:
NCI-H292 cells = test: AB-PAS staining of mucus glycoprotein in NCI-H292 cells; format: cell-based, human; conditions: FIG. 1 and 2
Procedure: NCI-H292 cells (human pulmonary mucoepidermoid tumor cell strain, purchased from ATCC) were suspended in 10% FCS (Fetal Calf Serum)-containing RPMI-1640 (produced by Gibco Corp.), sowed on a Lab-Tek 8 well chamber slide (produced by Nunc Corp.) in a density of 6.0×10^4 cells/cm^2, cultured for 72 hours, subjected to the replacement of the culture solution by RPMI-1640 containing 0.1% of BSA, and further cultured for 24 hours.
On the day of the treatment, the culture solution of each well was replaced by RPMI-1640 (containing 0.1% BSA) containing EGF (5 ng/mL, produced by Becton Dickinson Corp.), HB-EGF (5 ng/mL, produced by R & D Corp.), TGF-α (5 ng/mL, produced by Peprotech Corp.), or PBS to start the treatment. Then, the cells were incubated at 37° C. for 24 hours.
After the prescribed 24 hours treatment, the culture supernatant was removed. The residue was once washed with PBS, mixed with 4% paraformaldehyde/PBS, and then allowed to stand at room temperature for one hour to immobilize the cells. The immobilized cells were twice washed with Milli Q water and then stained with AB-PAS. The staining was carried out according to a book (“All of new dyeing methods” p136-150 (Iyaku Shuppansha)). After staining, the cells were sequentially immersed in 70, 80, and 100% ethanol for five minutes, respectively, to remove water, sealed in an Aquatex (produced by Merck Corp.), and then subjected to the observation of the staining image with an optical microscope. From the results, it was clarified that all of HAST, TGF-α, EGF, and HB-EGF promoted the production of the mucus glycoprotein.
NCI-H292 cells (purchased from ATCC) were suspended in 10% FCS-containing RPMI-1640 (produced by Gibco Corp.), sowed on a Lab-Tek 8 well chamber slide (produced by Nunc Corp.) in a density of 6.0×10^4 cells/cm^2, cultured for 72 hours, subjected to the replacement of the culture solution by RPMI-1640 containing 0.1% of BSA, and further cultured for 24 hours. […]

PAR-1 = target: T1, PAR-1 (Homo sapiens, UniProt P25116); test: Calcium influx in PAR-1-expressing insect cells; format: cell-based; conditions: AST 2 units/mL; trypsin, thrombin 0.1 to 10 units/mL; SFLLRNamide 10 to 100 μM
T1 construct: expressed in transfected cells; host or cells: Sf9 insect cells infected with recombinant baculovirus VL-PAR (pVL1393)
T1 sequence (P25116 22-425): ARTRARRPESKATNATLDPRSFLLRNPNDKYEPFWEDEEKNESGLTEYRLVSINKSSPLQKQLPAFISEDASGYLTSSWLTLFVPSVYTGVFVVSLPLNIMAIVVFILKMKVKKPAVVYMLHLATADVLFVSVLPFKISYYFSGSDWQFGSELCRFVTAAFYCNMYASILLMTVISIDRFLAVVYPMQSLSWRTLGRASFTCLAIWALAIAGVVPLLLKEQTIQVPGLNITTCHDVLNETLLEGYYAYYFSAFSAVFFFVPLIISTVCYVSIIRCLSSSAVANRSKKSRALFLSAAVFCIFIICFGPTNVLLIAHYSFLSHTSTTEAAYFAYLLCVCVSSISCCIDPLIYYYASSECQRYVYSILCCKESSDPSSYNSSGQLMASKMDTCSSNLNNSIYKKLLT
Procedure: The above-obtained recombinant baculovirus VL-PAR for expressing the PAR was used to infect 1.0×10^7 Sf9 cells sowed on a 75 cm^2 flask at an MOI=2, and was then left and stationally cultured at 27° C. for 40 hours. After the culture, the infected cells were recovered and then subjected to a calcium influx experiment to-confirm the function of the PAR.
The recovered infected cells (about 5×10^6 cells) were once washed with HEPES-Tyrode buffer solution-Ca^2+ (−) pH 7.4, and then suspended in 5 mL of HEPES-Tyrode buffer solution (containing Fura2-AM, 1 μg/mL) to load the Fura2-AM on the cells at 27° C. for 30 minutes. The suspension was centrifuged at 800 rpm at room temperature for 5 minutes to recover the cells. The cells were twice washed with HEPES-Tyrode buffer solution-Ca^2+ (−) pH 7.4 and then resuspended in 5 mL of HEPES-Tyrode buffer solution-Ca^2+ (−) pH 7.4. The cell suspension was mixed with 5 μL of 1M CaCl2 to give a final concentration of 1 mM CaCl2, and then incubated in a shaded state at room temperature for 5 minutes. The prepared Fura2-AM-loaded infected cells were dispensed into a 96 well plate in a volume of 100 μL/well, further subjected to the dispensation of HEPES-Tyrode buffer solution-C^2+ (+) pH 7.4 in a volume of 80 μL/well, and then assayed with a Fluorescence Drug Screening System (made by Hamamatsu Photonics Co.). Namely, [intensity of 500 nm fluorescent light due to 340 nm exciting light]/[intensity of 500 nm fluorescent light due to 380 nm exciting light] (reflecting the concentration of calcium in the cells) was assayed.

HAST: human airway-specific trypsin-like enzyme; propeptide moiety bound to trypsin-like protein moiety via a disulfide bond
production of the mucus glycoprotein (NCI-H292 cells): promoted
Ca2+ influx (PAR-1): observed
